From PubChem BioAssay (NCI) come the findings set out here.

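Protocol summary: plate cells (96-well), add compound at 5 concentrations, incubate 48 h, interpolate endpoints linearly. At the GI50, growth is halved. TGI denotes the concentration required for complete inhibition of growth.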

What is called GI50 is the concentration giving 50% growth inhibition. By TGI is commonly meant the concentration giving total growth inhibition. A lower TGI goes with more potent growth arrest.

Experiment in all cases: DTP human tumour cell line panel, 48 h
For test [1], the system named is COLO 205 colon.
The subject of test [2] is HT29 colon.
Test [3] concerns UO-31 renal.
Test [4] relates to OVCAR-4 ovarian.
Test [5] has as its system RPMI-8226 leukemia.
Test [6] relates to SR leukemia.
The test system of test [7] is MOLT-4 leukemia.
Test [8] deals with SF-268 CNS.
Test [9] has as its system OVCAR-5 ovarian.
In test [10] the test system is K-562 leukemia.

For `Cc1cc(Cl)nc(N(CCNc2ccnc3cc(Cl)ccc23)Cc2ccco2)n1`, the GI50 in [1] was 1.64 µM; in test [2], 2.11 µM; in [3], 1.42 µM; in [4], 1.67 µM; in [5], 1.76 µM; in test [6] it was 1.81 µM. For the same compound, the GI50 in test [7] was 2.09 µM; in test [8], 3.22 µM; in [9], 2.72 µM; in test [10], 1.54 µM. Moreover, the total growth inhibition concentration (TGI) in test [1] worked out at 3.23 µM; in [2] it was 6.83 µM; in [3], 2.93 µM; in test [4], 3.38 µM; in test [5], 4.27 µM; in test [6], 4.39 µM. Besides, the total growth inhibition concentration (TGI) is 4.65 µM in test [7], 13.2 µM in test [8], 8.11 µM in test [9] and 3.35 µM in test [10].

As for `CC(=O)Oc1ccc(C2=Cc3ccc(OC(C)=O)cc3OC2C)cc1` (stereo not given), the GI50 in test [1] is 27.9 µM; in test [2] it was 20.7 µM; in test [3] it was 2.05 µM; in test [4], 14.2 µM; in [5], 0.59 µM; in [6] it was 1.7 µM. Also, the GI50 in [7] is 1.97 µM; in [8], 3.44 µM; in test [9], 21.1 µM; in [10], 3.05 µM. Moreover, the concentration for total growth inhibition (TGI) in test [1] is above 100 µM; in [2] it was above 100 µM; in test [3], 6.65 µM; in test [4], 81.4 µM; in [5] it was 16 µM; in test [6] it was 9.95 µM. The TGI in test [7] was 19.4 µM; in test [8], 30.6 µM; in test [9], above 100 µM; in test [10] it was above 100 µM.

As to `CN(C)c1ccc(-c2cc(-c3ccc(Nc4nc(Nc5ccc(Cl)cc5)nc(Nc5ccc(Cl)cc5)n4)cc3)nc(N)c2C#N)cc1`, the GI50 in test [1] was 7.88 µM; in [2], 8.85 µM; in [3], 47.6 µM; in test [4] it was 9.86 µM; in [5], 0.864 µM; in test [6], 1.32 µM. Further, the GI50 in [7] was 2.13 µM; in test [8] it was 40.3 µM; in test [9] it was above 100 µM; in test [10], 5.2 µM. Further, the TGI in test [1] is above 100 µM; in test [2], above 100 µM; in test [3], above 100 µM; in [4], above 100 µM; in test [5], 53.8 µM; in test [6], 9.83 µM. For the same compound, the TGI is 20.5 µM in [7], above 100 µM in test [8], above 100 µM in test [9] and above 100 µM in [10].

As for `Cn1c(=O)c2nc3sc4c(n3c2n(C)c1=O)C(=O)c1ccccc1C4=O`, the concentration for total growth inhibition (TGI) in [1] is above 100 µM; in test [2], above 56.2 µM; in [3], above 76 µM; in [4] it was above 81.4 µM; in [5], above 83.4 µM; in test [6], above 73 µM. In addition, the TGI is 38.3 µM in test [7], above 100 µM in test [8], above 100 µM in [9] and above 100 µM in test [10].

Turning to `COC12C(COC(=O)NCCO)C3=C(C(=O)C(C)=C(N)C3=O)N1CC1NC12` (stereo not given), the TGI in [1] was 85.8 µM; in test [2], above 264 µM; in test [3], above 264 µM; in test [4] it was 119 µM; in [5], above 264 µM; in test [6] it was above 264 µM. In addition, the TGI was above 264 µM in test [7], 217 µM in test [8], above 264 µM in test [9] and above 264 µM in test [10]. In addition, the GI50 in [2] was 52.7 µM; in test [3], above 264 µM; in test [4] it was 53.2 µM; in [8], 32.9 µM; in [9], 78.1 µM.

For the compound `C#Cc1ccc(-n2c(/C=C/c3ccc(O)cc3)nc3ncccc3c2=O)cc1`, the GI50 in test [1] is above 100 µM; in test [2], 52.8 µM; in test [3] it was 3.79 µM; in test [4], 22.8 µM; in test [5], 3.41 µM; in [6], 3.54 µM. The GI50 in [7] is 7.35 µM; in test [8] it was 5.24 µM; in test [9] it was 32.3 µM; in [10] it was 4.33 µM. For the same compound, the TGI in test [1] is above 100 µM; in test [2] it was above 100 µM; in [3], 33.7 µM; in test [4], above 100 µM; in test [5], above 100 µM; in test [6], above 100 µM. The TGI in test [7] is above 100 µM; in test [8], 68 µM; in test [9], above 100 µM; in test [10], above 100 µM.

As to `CCC(c1ccccc1)c1noc(CCN(CC)CC)n1` (stereo not given), the GI50 was 17.5 µM in [1]; 27.2 µM in [2]; 32.2 µM in test [3]; 16.4 µM in test [4]; 13.2 µM in test [5]; 37.5 µM in test [6]. In addition, the GI50 is 40.9 µM in test [7], 35.1 µM in test [8], 17.1 µM in test [9] and 25.8 µM in [10]. The TGI was 34.5 µM in [1]; 81.3 µM in test [2]; above 100 µM in test [3]; 40.7 µM in test [4]; above 100 µM in [5]; above 100 µM in test [6]. Also, the TGI is above 100 µM in test [7], above 100 µM in test [8], 35.6 µM in test [9] and above 100 µM in [10].

For `CC(=O)OCC(=O)[C@@]1(O)CC[C@H]2[C@@H]3C[C@H](C)C4=CC(=O)C=C[C@]4(C)[C@@]3(F)[C@@H](O)C[C@@]21C`, the TGI in [1], in test [2], in test [3], in [4], in test [5] and in test [6] was above 100 µM throughout. Further, the TGI in [7], in test [8], in test [9] and in [10] was above 100 µM in each case.
